Source: US20030203857A1, “Remedies” (priority 2000, published 2003)
Several values for one entry are separate records, joined by “and”; a condition that tells them apart may be missing. Identical values can stand only once.

Columns and labels:
[1] = tested on: HGF production in MRC-5 cells; test: Enhancing activity for HGF production, MRC-5 cells, HGF ELISA of medium; type: cell-based, Human; conditions: 24 hours, control = 100%
Method: MRC-5 cells (CCL 171: manufactured by DAINIPPON PHARMACEUTICAL CO., LTD., code. 02-021) were suspended in a DME medium containing 10% fetal bovine serum so as to have a concentration of 5×10^4 cells/cm^2. The suspension was put in a 48-well cell culture plate, and the cells were cultured at 37° C. in the presence of 5% CO2 gas for 24 hours. After culturing, the medium was exchanged. Thereafter, the sample was added, and the cells were cultured for another 24 hours. Subsequently, the medium was collected, and the amount of HGF in the medium was assayed using Quantikine Human Hepatocyte Growth Factor (HGF) ELISA Kit (manufactured by Funakoshi, code. RS-0641-00). […] Here, the addition of the sample was carried out by previously preparing aqueous solutions of the samples at various concentrations, and adding a given amount of each solution to the medium so as to have the above-mentioned final concentration. As the control, that with addition of a given amount of distilled water alone (final concentration of the sample: 0 μM) was used. The amount of HGF production was expressed as the relative value (%) when the HGF concentration in the cell culture medium of the control was defined as 100%. All experiments were carried out twice, and an average value was taken.

[2] = tested on: NGF production in L-M cells; test: Enhancing activity for NGF production, L-M cells, NGF enzyme immunoassay of medium; type: cell-based, murine; conditions: control = 100%
Method: L-M cells (ATCC CCL-1.2) from murine fibroblasts were suspended in an M199 medium (manufactured by ICN) containing 0.5% bactopeptone (manufactured by Gibco BRL) so as to have a concentration of 1.5×10^5 cells/ml. The suspension was put in a 96-well plate in an amount of 0.1 ml each well, and the cells were aseptically cultured. After culturing the cells for 3 days, the medium was removed therefrom, and exchanged with an M199 medium containing 0.5% bovine serum albumin (manufactured by Sigma). […] After the termination of the culture, the NGF concentration in the culture medium was determined by an enzyme immunoassay method (NGF Emax Immuno Assay System, manufactured by Promega). Incidentally, in the case where the final concentration of the iron-treated chlorogenic acid was 0 μM, a given amount of an aqueous solution obtained by an iron treatment in the absence of chlorogenic acid was added to the medium. In addition, for the purpose of comparison, the activity of the chlorogenic acid without the iron treatment was assayed in the same manner. As described above, that with addition of a given amount of distilled water alone (final concentration of chlorogenic acid without the iron treatment: 0 μM) was used as the control. The amount of NGF production was expressed as the relative value (%) when the NGF concentration in the cell culture medium of the control was defined as 100%. The experiment was carried out twice, and an average value was taken. The enhancing activity for NGF production of chlorogenic acid was enhanced by the iron treatment.

mouse = type: in vivo; conditions: orally, single dose of 1 g/1 kg

| Molecule | Amount of HGF Production ([1]; 1 μM) | Amount of HGF Production ([1]; 10 μM) | Amount of HGF Production ([1]; 100 μM) | Death after single oral administration (mouse) | other results |
| --- | --- | --- | --- | --- | --- |
| 3,5-dicaffeoylquinic acid | 142% | 206% | 290% | – | – |
| CCOC(=O)/C=C/c1ccc(O)c(O)c1 [Caffeic Acid Ethyl Ester, caffeic acid ethyl ester] | – | – | – | – | Amount of NGF Production ([2]; 0.0625 mg/ml): 1279.1% |
| COC(=O)/C=C/c1ccc(O)c(O)c1 [Caffeic Acid Methyl Ester, caffeic acid methyl ester] | – | – | – | – | Amount of NGF Production ([2]; 0.0625 mg/ml): 824.4%; Amount of NGF Production ([2]; 0.125 mg/ml): 889.6% |
| O=C(O)/C=C/c1ccc(O)c(O)c1 [caffeic acid] | 85% | 117% | 196% | no cases of death | Amount of HGF Production ([1]; 1000 μM): 92%; Amount of NGF Production ([2]; 62.5 μM, 20 hours): 97.8%; Amount of NGF Production ([2]; 125 μM, 20 hours): 199.5%; Amount of NGF Production ([2]; 250 μM, 20 hours): 221.2% and 227.8%; Amount of NGF Production ([2]; 500 μM, 20 hours): 287.9%; Amount of NGF Production ([2]; 1000 μM, 20 hours): 269.3% |
| O=C(/C=C/c1ccc(O)c(O)c1)O[C@@H]1C[C@](O)(C(=O)O)C[C@@H](O)[C@H]1O [chlorogenic acid] | 105% | 122% | 302% | no cases of death | Amount of HGF Production ([1]; 50 μM (as chlorogenic acid)): 148%; Amount of HGF Production ([1]; 500 μM): 479%; Amount of HGF Production ([1]; 1000 μM): 624%; Amount of NGF Production ([2]; 125 μM, 20 hours): 124.6%; Amount of NGF Production ([2]; 250 μM, 20 hours): 308.5% and 192.8%; Amount of NGF Production ([2]; 500 μM, 20 hours): 351.1% and 382.2% and 328.5% and 231.9%; Amount of NGF Production ([2]; 1000 μM, 20 hours): 256.2% |
| O=C(/C=C/c1ccc(O)c(O)c1)O[C@H]1[C@H](O)C[C@](O)(C(=O)O)C[C@H]1O [cryptochlorogenic acid, 4-caffeoyl-quinic acid] | – | – | – | no cases of death | – |
| O=C(O[C@@H]1Cc2c(O)cc(O)cc2O[C@@H]1c1cc(O)c(O)c(O)c1)c1cc(O)c(O)c(O)c1 [epigallocatechin gallate] | 175% | 160% | – | no cases of death | – |
| O=C(O)c1cc(O)c(O)c(O)c1 [gallic acid] | 112% | 217% | 576% | no cases of death | – |
| O=c1cc(-c2ccc(O)c(O)c2)oc2cc(O)c([C@@H]3O[C@H](CO)[C@@H](O)[C@H](O)[C@H]3O)c(O)c12 [isoorientin] | – | – | – | no cases of death | – |
| COc1cc(O)c(CC=C(C)C)c2c1C(=O)CC(c1ccc(O)cc1)O2 (centres unmarked) [isoxanthohumol] | – | – | – | – | Amount of NGF Production ([2]; 50 μM, 20 hours): 110.7%; Amount of NGF Production ([2]; 100 μM, 20 hours): 121.4%; Amount of NGF Production ([2]; 200 μM, 20 hours): 198.0% |
| O=c1c(O)c(-c2ccc(O)cc2)oc2cc(O)cc(O)c12 [kaemferol] | – | – | – | no cases of death | – |
| O=c1c(O)c(-c2cc(O)c(O)c(O)c2)oc2cc(O)cc(O)c12 [myricetin] | 187% | 543% | 454% | no cases of death | – |
| O=C(/C=C/c1ccc(O)c(O)c1)O[C@@H]1C[C@@](O)(C(=O)O)C[C@@H](O)[C@@H]1O [neochlorogenic acid, 5-caffeoyl-quinic acid] | – | – | – | no cases of death | – |
| O=c1c(O)c(-c2ccc(O)c(O)c2)oc2cc(O)cc(O)c12 [quercetin] | – | 139% | 304% | no cases of death | – |
| COc1cc2c(c(O)c1C(=O)/C=C/c1ccc(O)cc1)CC(O)C(C)(C)O2 (centres unmarked) [xanthohumol B] | – | – | – | no cases of death | – |
| C=C(C)C(O)Cc1c(O)cc(OC)c(C(=O)/C=C/c2ccc(O)cc2)c1O (centres unmarked) [xanthohumol D] | – | – | – | no cases of death | – |
